# In ChEMBL document CHEMBL6078696, “Nanomolar activity of coumarin-3-thiosemicarbazones targeting Trypanosoma cruzi cruzain and the T. brucei cathepsin L-like protease” (Eur J Med Chem, 2025):
# pEC50, pIC50: −log10 of the molar value.
# Experiments:
# [1] = test system: Trypanosoma cruzi; experiment: Antitrypanosomal activity against intracellular Trypanosoma cruzi amastigotes infected in mouse C2C12 cells at 10 uM incubated for 48 hrs by DAPI staining based analysis relative to control; type: functional
# [2] = Cytotoxicity against HEK293 cells at 50 uM incubated for 48 hrs by resazurin reduction assay relative to control; type: toxicity, cell-based; details: human, read-out: INH
# [3] = test system: Trypanosoma brucei; experiment: Inhibition of recombinant Trypanosoma brucei CATL using Z-Phe-Arg-aminomethylcoumarin as substrate at 50 uM preincubated for 10 mins followed by substrate addition by fluorimetry relative to control
# [4] = Cytotoxicity against mouse C2C12 cells at 10 uM relative to control; type: toxicity, cell-based; details: read-out: INH
# [5] = biological target: Cruzipain (Trypanosoma cruzi) (UniProt P25779); experiment: Inhibition of recombinant Trypanosoma cruzi CRZ using Z-Phe-Arg-aminomethylcoumarin as substrate at 50 uM preincubated for 10 mins followed by substrate addition by fluorimetry relative to control
# Sequence of Cruzipain (Trypanosoma cruzi) (P25779 123-467 limits assumed): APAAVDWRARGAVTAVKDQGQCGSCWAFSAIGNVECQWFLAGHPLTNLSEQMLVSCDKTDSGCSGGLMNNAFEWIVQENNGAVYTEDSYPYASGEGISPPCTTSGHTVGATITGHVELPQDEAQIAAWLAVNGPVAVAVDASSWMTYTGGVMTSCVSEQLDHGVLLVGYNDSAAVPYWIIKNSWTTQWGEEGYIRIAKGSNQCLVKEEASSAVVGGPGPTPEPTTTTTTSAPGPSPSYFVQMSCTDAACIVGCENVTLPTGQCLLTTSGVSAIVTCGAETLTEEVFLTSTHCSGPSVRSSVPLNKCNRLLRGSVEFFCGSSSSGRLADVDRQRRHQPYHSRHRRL
# [6] = test system: Trypanosoma brucei; experiment: Antitrypanosomal activity against Trypanosoma brucei trypomastigotes assessed as parasite growth inhibition at 50 uM incubated for 72 hrs by resazurin dye based assay relative to control; type: functional
# [7] = biological target: T1, Cruzipain (Trypanosoma cruzi, UniProt P25779); experiment: Inhibition of recombinant Trypanosoma cruzi CRZ using Z-Phe-Arg-aminomethylcoumarin as substrate preincubated for 10 mins followed by substrate addition by fluorimetry
# T1 sequence (P25779 whole entry): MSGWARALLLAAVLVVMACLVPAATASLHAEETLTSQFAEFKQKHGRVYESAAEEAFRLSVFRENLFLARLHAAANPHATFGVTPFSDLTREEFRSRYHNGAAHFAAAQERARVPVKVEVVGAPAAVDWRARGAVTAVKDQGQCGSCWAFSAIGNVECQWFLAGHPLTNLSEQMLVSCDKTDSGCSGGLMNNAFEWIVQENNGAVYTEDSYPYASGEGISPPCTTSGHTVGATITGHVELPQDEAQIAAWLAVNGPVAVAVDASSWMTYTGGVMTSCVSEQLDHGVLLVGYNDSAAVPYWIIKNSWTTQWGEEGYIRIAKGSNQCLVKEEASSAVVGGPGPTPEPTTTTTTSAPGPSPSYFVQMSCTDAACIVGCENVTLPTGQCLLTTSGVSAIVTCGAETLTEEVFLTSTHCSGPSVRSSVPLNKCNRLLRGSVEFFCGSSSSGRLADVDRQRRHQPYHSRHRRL
# [8] = Cytotoxicity against HEK293 cells incubated for 48 hrs by resazurin reduction assay; type: toxicity, cell-based; details: human
# [9] = Inhibition of recombinant Trypanosoma brucei CATL using Z-Phe-Arg-aminomethylcoumarin as substrate preincubated for 10 mins followed by substrate addition by fluorimetry
# [10] = test system: Trypanosoma brucei; experiment: Antitrypanosomal activity against Trypanosoma brucei trypomastigotes assessed as parasite growth inhibition incubated for 72 hrs by resazurin dye based assay; type: functional, organism-based
# [11] = Selectivity index, ratio of CC50 for cytotoxicity against HEK293 cells to EC50 for Trypanosoma brucei trypomastigotes; type: toxicity, cell-based; details: human, read-out: Ratio CC50/EC50
# [12] = test system: Trypanosoma brucei; experiment: Potency index, ratio of FN-27 IC50 to test compound IC50 recombinant Trypanosoma brucei CATL
# [13] = biological target: Cruzipain (Trypanosoma cruzi) (UniProt P25779); experiment: Potency index, ratio of FN-27 IC50 to test compound IC50 recombinant Trypanosoma cruzi CRZ
# [14] = biological target: T1, Cruzipain; experiment: Inhibition of Trypanosoma cruzi CRZ
# [15] = Inhibition of Trypanosoma brucei CATL
# [16] = test system: Trypanosoma cruzi; experiment: Antitrypanosomal activity against Trypanosoma cruzi amastigotes infected in cell model; type: functional, organism-based
inhibition [3] [%],inhibition [5] [%],Compound,inhibition at 10 µM [1] [%],"cytotoxicity at 48 h, 50 µM [2] [%]",cytotoxicity at 10 µM [4] [%],inhibition at 50 µM [6] [%],also measured
19,2,O=C(c1cc2cc(I)ccc2oc1=O)N1CCN(c2ccccc2)CC1,5,13,0,12,
77,30,CCN(CC)c1ccc2cc(/C(C)=N/NC(N)=S)c(=O)oc2c1,44,80,11,56,pIC50 [7]: 7.34; CC50 at 48 h [8]: 42.7 µM
87,92,C/C(=N\NC(N)=S)c1cc2cc(Br)ccc2oc1=O,57,13,12,71,pIC50 [7]: 6.84; pIC50 [9]: 6.16; pEC50 [10]: 4.36; CC50 at 48 h [8]: 52.3 µM; selectivity ratio [11]: ~1.2
29,5,COc1ccc2cc(C(=O)N3CCN(c4ccccc4)CC3)c(=O)oc2c1,27,11,1,43,
,,COc1ccc2cc(C(=O)NCc3ccccc3)c(=O)oc2c1,21,1,0,45,
97,98,C/C(=N\NC(N)=S)c1cc2ccc(C)cc2oc1=O,52,10,0,23,pIC50 [7]: 6.70; Ratio IC50 [12]: 92; Ratio IC50 [13]: 72; pIC50 [9]: 7.66; CC50 at 48 h [8]: 114 µM
,,COc1ccc2cc(C(=O)NCCc3c[nH]c4ccccc34)c(=O)oc2c1,27,81,0,59,CC50 at 48 h [8]: 32.1 µM
9,22,O=C(NCCc1c[nH]c2ccccc12)c1cc2cc(Cl)cc(Cl)c2oc1=O,23,17,0,44,
,,CC(C)C[C@H](NC(=O)[C@H](Cc1ccccc1)NC(=O)c1cnccn1)B(O)O [BORTEZOMIB],,100,,,
,,COc1cccc2cc(/C(C)=N/NC(N)=S)c(=O)oc12,,,,,pIC50 [14]: 4.84; pIC50 [15]: 5.70; pEC50 [16]: 5.26
12,6,O=C(c1cc2cc(Cl)cc(Cl)c2oc1=O)N1CCN(c2ccccc2)CC1,25,12,5,24,
24,3,COc1cc(OC)c2cc(C(=O)N3CCN(c4ccccc4)CC3)c(=O)oc2c1,2,18,0,15,
,,COc1cc(OC)c2cc(C(=O)NCc3ccccc3)c(=O)oc2c1,17,23,0,3,
,,N=C(N)c1ccc(OCCCCCOc2ccc(C(=N)N)cc2)cc1 [PENTAMIDINE],,,,100,
15,25,COc1cc(OC)c2cc(C(=O)NCCc3c[nH]c4ccccc34)c(=O)oc2c1,13,31,0,43,
18,7,O=C(NCCc1c[nH]c2ccccc12)c1cc2cc(I)ccc2oc1=O,7,41,1,39,
88,97,C/C(=N\NC(N)=S)c1cc2ccccc2oc1=O,49,11,0,40,pIC50 [7]: 7.17; pIC50 [9]: 7.14
17,9,O=C(Nc1ccccc1)c1cc2ccccc2oc1=O,3,0,1,52,
7,1,O=C(NCc1ccccc1)c1cc2ccccc2oc1=O,6,3,10,38,
25,10,O=C(NCCc1c[nH]c2ccccc12)c1cc2ccccc2oc1=O,24,76,16,63,CC50 at 48 h [8]: 19.6 µM
99,,CC(C)C[C@H](NC(=O)[C@H]1O[C@@H]1C(=O)O)C(=O)NCCCCN=C(N)N,,,,,
34,48,O=C(c1cc2ccccc2oc1=O)N1CCN(c2ccccc2)CC1,8,11,0,17,
,,O=C(Cn1ccnc1[N+](=O)[O-])NCc1ccccc1 [BENZNIDAZOLE],77,,0,,
